Measured values published in PubChem BioAssay AID248 (DTP/NCI, 2004).
Values joined by “and” are separate entries in the source; they are usually repeats but may differ in a detail not shown here. Equal entries are not always repeated. Toxic doses and inconclusive results are not listed. Rule as the data show it: active = T/C of 150% or more; inactive = T/C below 125%.

Tested on: L1210 leukemia ip in BDF1 mice, survival T/C
Test: NCI In Vivo Anticancer Drug Screen. Data for tumor model L1210 Leukemia (intraperitoneal) in B6D2F1 (BDF1) mice
Details: endpoint: mean survival time, higher = longer survival
Outline: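 Read-out is survival time, reported as the treated-group measurement over the vehicle-control measurement.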

[1] = dose: 25.0 mg/kg/injection, schedule: Q04DX002 (ip), vehicle: saline
[2] = dose: 50.0 mg/kg/injection, schedule: Q04DX002 (ip), vehicle: saline
[3] = dose: 100.0 mg/kg/injection, schedule: Q04DX002 (ip), vehicle: saline
[4] = dose: 100.0 mg/kg/injection, schedule: Q04DX003 (ip), vehicle: saline
[5] = dose: 100.0 mg/kg/injection, schedule: Q04DX002 (ip), vehicle: saline with Tween-80
[6] = dose: 200.0 mg/kg/injection, schedule: Q04DX002 (ip), vehicle: saline with Tween-80
[7] = dose: 400.0 mg/kg/injection, schedule: Q04DX002 (ip), vehicle: saline with Tween-80
[8] = dose: 100.0 mg/kg/injection, schedule: Q01DX009 (ip), vehicle: Klucel (hydroxypropylcellulose) (HPC)
[9] = dose: 100.0 mg/kg/injection, schedule: Q04DX003 (ip), vehicle: Klucel (hydroxypropylcellulose) (HPC)
[10] = dose: 200.0 mg/kg/injection, schedule: Q01DX009 (ip), vehicle: Klucel (hydroxypropylcellulose) (HPC)
[11] = dose: 200.0 mg/kg/injection, schedule: Q04DX003 (ip), vehicle: Klucel (hydroxypropylcellulose) (HPC)
[12] = dose: 400.0 mg/kg/injection, schedule: Q01DX009 (ip), vehicle: Klucel (hydroxypropylcellulose) (HPC)
[13] = dose: 400.0 mg/kg/injection, schedule: Q04DX003 (ip), vehicle: Klucel (hydroxypropylcellulose) (HPC)

Measured: T/C

NC(CSCc1ccc(N(CCCl)CCCl)cc1)C(=O)O (stereo not drawn)
active: dose: 10.0 mg/kg/injection, schedule: Q01DX Z (ip), vehicle: carboxymethylcellulose (CMC) 157 % of control | dose: 20.0 mg/kg/injection, schedule: Q01DX Z (ip), vehicle: carboxymethylcellulose (CMC) 152 % of control and 168 % of control
inactive: dose: 2.5 mg/kg/injection, schedule: Q01DX Z (ip), vehicle: carboxymethylcellulose (CMC) 124 % of control | dose: 4.0 mg/kg/injection, schedule: Q01DX Z (ip), vehicle: other 112 % of control | dose: 7.0 mg/kg/injection, schedule: Q01DX009 (ip), vehicle: saline 109 % of control | dose: 7.0 mg/kg/injection, schedule: Q01DX Z (ip), vehicle: saline 111 % of control | dose: 10.0 mg/kg/injection, schedule: Q01DX001 (ip), vehicle: carboxymethylcellulose (CMC) 87 % of control | dose: 11.0 mg/kg/injection, schedule: Q01DX009 (ip), vehicle: saline 103 % of control | dose: 11.0 mg/kg/injection, schedule: Q01DX Z (ip), vehicle: saline 118 % of control | dose: 16.0 mg/kg/injection, schedule: Q01DX009 (ip), vehicle: saline 111 % of control | dose: 16.0 mg/kg/injection, schedule: Q01DX Z (ip), vehicle: saline 114 % of control | dose: 24.0 mg/kg/injection, schedule: Q01DX009 (ip), vehicle: saline 103 % of control | dose: 24.0 mg/kg/injection, schedule: Q01DX Z (ip), vehicle: saline 124 % of control | dose: 30.0 mg/kg/injection, schedule: Q01DX Z (ip), vehicle: other 123 % of control | dose: 32.0 mg/kg/injection, schedule: Q01DX009 (ip), vehicle: saline 113 % of control | dose: 40.0 mg/kg/injection, schedule: Q01DX001 (ip), vehicle: carboxymethylcellulose (CMC) 95 % of control | dose: 40.0 mg/kg/injection, schedule: Q01DX Z (ip), vehicle: carboxymethylcellulose (CMC) 100 % of control | dose: 80.0 mg/kg/injection, schedule: Q01DX001 (ip), vehicle: carboxymethylcellulose (CMC) 91 % of control

O=C(O)C1CC1C(=O)c1ccccc1 (stereo not drawn)
inactive: dose: 25.0 mg/kg/injection, schedule: Q01DX001 (ip), vehicle: Klucel (hydroxypropylcellulose) (HPC) 98 % of control | dose: 50.0 mg/kg/injection, schedule: Q01DX001 (ip), vehicle: Klucel (hydroxypropylcellulose) (HPC) 97 % of control | dose: 100.0 mg/kg/injection, schedule: Q01DX001 (ip), vehicle: Klucel (hydroxypropylcellulose) (HPC) 96 % of control and 98 % of control | dose: 200.0 mg/kg/injection, schedule: Q01DX001 (ip), vehicle: Klucel (hydroxypropylcellulose) (HPC) 86 % of control | dose: 400.0 mg/kg/injection, schedule: Q01DX001 (ip), vehicle: Klucel (hydroxypropylcellulose) (HPC) 103 % of control

CC1CN1P(=O)(N1CC1C)N1CC1C.CC1CN1P(=O)(N1CC1C)N1CC1C.CC1CN1P(=O)(N1CC1C)N1CC1C.CC1CN1P(=O)(N1CC1C)N1CC1C.[Cu+2].[O-][Cl+3]([O-])([O-])O (stereo not drawn)
inactive: dose: 25.0 mg/kg/injection, schedule: Q01DX009 (ip), vehicle: saline 111 % of control | [1] 108 % of control | dose: 50.0 mg/kg/injection, schedule: Q01DX009 (ip), vehicle: saline 119 % of control | [2] 102 % of control | dose: 100.0 mg/kg/injection, schedule: Q01DX009 (ip), vehicle: saline 92 % of control | [3] 108 % of control and 119 % of control

CCN(CC)C(=O)/C=C/C(=O)N(CC)CC
inactive: [4] 103 % of control | dose: 200.0 mg/kg/injection, schedule: Q04DX003 (ip), vehicle: saline 100 % of control | dose: 400.0 mg/kg/injection, schedule: Q04DX003 (ip), vehicle: saline 100 % of control

COc1ccc(/C=C(\C#N)c2ccc([N+](=O)[O-])cc2)cc1OC
inactive: [5] 90 % of control | [6] 90 % of control | [7] 90 % of control

O=C1c2ccccc2C(=O)c2c(Nc3ccc(S(=O)(=O)N(CCO)CCO)cc3)ccc(O)c21
inactive: dose: 100.0 mg/kg/injection, schedule: Q01DX001 (ip), vehicle: saline 97 % of control | dose: 200.0 mg/kg/injection, schedule: Q01DX001 (ip), vehicle: saline 100 % of control

CC(Cl)CNC(=O)Nc1cccc2c1CCCC2 (stereo not drawn)
inactive: dose: 50.0 mg/kg/injection, schedule: Q01DX001 (ip), vehicle: saline with Tween-80 103 % of control | dose: 100.0 mg/kg/injection, schedule: Q01DX001 (ip), vehicle: saline with Tween-80 100 % of control | dose: 100.0 mg/kg/injection, schedule: Q01DX009 (ip), vehicle: saline with Tween-80 96 % of control | dose: 200.0 mg/kg/injection, schedule: Q01DX001 (ip), vehicle: saline with Tween-80 94 % of control | dose: 200.0 mg/kg/injection, schedule: Q01DX009 (ip), vehicle: saline with Tween-80 95 % of control | dose: 400.0 mg/kg/injection, schedule: Q01DX001 (ip), vehicle: saline with Tween-80 91 % of control | dose: 400.0 mg/kg/injection, schedule: Q01DX009 (ip), vehicle: saline with Tween-80 90 % of control

Cc1ccc2ccccc2c1CC(=O)O
inactive: [8] 101 % of control | [9] 112 % of control | [10] 95 % of control | [11] 96 % of control | [12] 117 % of control | [13] 96 % of control

CC(=O)N(C)c1ccc(NC(=O)Nc2c(C)cccc2C)cc1
inactive: [1] 94 % of control | dose: 50.0 mg/kg/injection, schedule: Q01DX009 (ip), vehicle: Klucel (hydroxypropylcellulose) (HPC) 96 % of control | [2] 93 % of control | [8] 98 % of control | [3] 96 % of control | [10] 102 % of control | dose: 200.0 mg/kg/injection, schedule: Q04DX002 (ip), vehicle: saline 110 % of control and 112 % of control | [12] 96 % of control | dose: 400.0 mg/kg/injection, schedule: Q04DX002 (ip), vehicle: saline 94 % of control

CC(C)C/C=N/NC(=O)Cc1ccccc1
inactive: dose: 100.0 mg/kg/injection, schedule: Q01DX001 (ip), vehicle: other 101 % of control | dose: 200.0 mg/kg/injection, schedule: Q01DX001 (ip), vehicle: other 94 % of control | dose: 400.0 mg/kg/injection, schedule: Q01DX001 (ip), vehicle: other 101 % of control

CCOC(=O)c1ccc(N(Cc2cccc([N+](=O)[O-])c2)S(=O)(=O)c2ccc(C)cc2)cc1
inactive: dose: 75.0 mg/kg/injection, schedule: Q01DX001 (ip), vehicle: saline with Tween-80 93 % of control | dose: 150.0 mg/kg/injection, schedule: Q01DX001 (ip), vehicle: saline with Tween-80 87 % of control

O=C1c2cccc3c([N+](=O)[O-])ccc(c23)C(=O)N1CCc1ccccn1
inactive: [5] 106 % of control | [6] 95 % of control | [7] 103 % of control

CC1=N/C(=N\c2nc3ccccc3[nH]2)NC(=O)CC1
inactive: dose: 75.0 mg/kg/injection, schedule: Q01DX001 (ip), vehicle: saline 101 % of control | dose: 150.0 mg/kg/injection, schedule: Q01DX001 (ip), vehicle: saline 93 % of control

C=C1C=C(C)N(C(=O)c2ccccc2Br)CCN1C(=O)c1ccccc1Br
inactive: [9] 96 % of control | [11] 105 % of control | [13] 100 % of control

COc1ccc2c(c1)C1(C)CCCC(C)(C(N)=O)C1CC2 (stereo not drawn)
inactive: dose: 100.0 mg/kg/injection, schedule: Q01DX001 (ip), vehicle: carboxymethylcellulose (CMC) 101 % of control | dose: 200.0 mg/kg/injection, schedule: Q01DX001 (ip), vehicle: carboxymethylcellulose (CMC) 93 % of control | dose: 400.0 mg/kg/injection, schedule: Q01DX001 (ip), vehicle: carboxymethylcellulose (CMC) 98 % of control

COc1ccc(C=Nc2ccc(OC(C)=O)cc2)cc1
inactive: dose: 176.0 mg/kg/injection, schedule: Q01DX009 (ip), vehicle: other 105 % of control | dose: 264.0 mg/kg/injection, schedule: Q01DX009 (ip), vehicle: other 120 % of control

Cc1ccc(-c2ccc3sc(C)[n+](C)c3c2)cc1
inactive: [4] 92 % of control

NC(=O)c1cc(=O)n(C2OC(CO)C(O)C2O)c2nc(N)nc(N)c12 (stereo not drawn)
inactive: dose: 12.5 mg/kg/injection, schedule: Q01DX005 (ip), vehicle: water 93 % of control | dose: 25.0 mg/kg/injection, schedule: Q01DX005 (ip), vehicle: water 90 % of control | dose: 50.0 mg/kg/injection, schedule: Q01DX005 (ip), vehicle: water 90 % of control | dose: 100.0 mg/kg/injection, schedule: Q01DX005 (ip), vehicle: water 90 % of control | dose: 200.0 mg/kg/injection, schedule: Q01DX005 (ip), vehicle: water 93 % of control
